# Results taken from patent US20090220626A1 (priority 2005, published 2009).
# Target: T1, human recombinant CYP2A6 (Homo sapiens, UniProt P11509)
# T1 construct: purchased
# T1 sequence (P11509 1-494): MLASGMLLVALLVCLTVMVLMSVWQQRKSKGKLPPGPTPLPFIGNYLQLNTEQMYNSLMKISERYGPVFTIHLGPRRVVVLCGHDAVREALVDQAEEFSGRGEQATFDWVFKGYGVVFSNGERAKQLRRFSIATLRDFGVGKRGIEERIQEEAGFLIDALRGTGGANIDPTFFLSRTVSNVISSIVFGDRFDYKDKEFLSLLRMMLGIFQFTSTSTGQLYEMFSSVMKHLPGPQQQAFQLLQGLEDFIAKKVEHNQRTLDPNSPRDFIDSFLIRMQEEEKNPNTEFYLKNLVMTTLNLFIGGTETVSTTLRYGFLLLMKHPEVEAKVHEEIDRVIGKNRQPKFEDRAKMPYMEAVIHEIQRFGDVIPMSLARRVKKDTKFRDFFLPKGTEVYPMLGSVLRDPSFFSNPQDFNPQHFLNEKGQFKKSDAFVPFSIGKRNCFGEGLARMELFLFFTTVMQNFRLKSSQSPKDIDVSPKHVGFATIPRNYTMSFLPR
# Assay: Inhibition of nicotine metabolism in CYP2A6 Supersomes
# Assay type: biochemical
# Details: 0, 1 and 100 μM; nicotine 100 μM, 15 minutes at 37° C.
# Procedure: Samples containing 0, 5, 50, or 500 μM of GSE or Capsule were prepared as described in Example 4. Each sample was incubated with CYP2A6 Supersomes (human recombinant CYP2A6 in an artificial system comprising requisite factors for sample stability and function), with 20 pmol/ml nicotine at 100 μM, for 15 minutes at 37° C.
# Sample containing 0, 1 and 100 μM of cytisine, a nicotine agonist, were prepared by extraction in ddH2O pH 4.1, for 2 hours at room temperature with continuous vortexing. The extraction was done at a concentration of 47 mg/ml. The samples were incubated with CYP2A6 Supersomes with 20 pmmol/ml of nicotine at 100 μM for 15 minutes at 37° C.
compound,measurement,value
O=c1cccc2n1C[C@@H]1CNC[C@H]2C1 [cytisine],inhibitory effect in CYP2A6 Supersomes (FIG. 7),does not have an inhibitory effect
